Legend:
[1] = target: T1, recombinant CETP (Homo sapiens, UniProt P11597); assay: RTA assay using recombinant CETP (2% RTA); format: biochemical; settings: 2% human serum
T1 sequence (P11597 18-493): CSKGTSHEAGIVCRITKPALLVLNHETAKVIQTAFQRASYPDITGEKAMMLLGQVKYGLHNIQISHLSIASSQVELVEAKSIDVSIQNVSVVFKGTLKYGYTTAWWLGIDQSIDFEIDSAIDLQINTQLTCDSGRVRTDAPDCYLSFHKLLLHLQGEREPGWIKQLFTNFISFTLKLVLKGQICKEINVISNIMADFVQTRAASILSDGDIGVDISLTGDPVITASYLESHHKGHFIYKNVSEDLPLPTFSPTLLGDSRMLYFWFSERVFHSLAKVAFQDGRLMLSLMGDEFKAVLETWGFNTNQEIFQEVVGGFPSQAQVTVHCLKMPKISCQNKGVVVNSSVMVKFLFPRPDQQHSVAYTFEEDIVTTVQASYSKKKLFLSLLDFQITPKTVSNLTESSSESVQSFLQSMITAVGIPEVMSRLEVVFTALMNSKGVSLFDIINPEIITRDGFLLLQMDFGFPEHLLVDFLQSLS
Experimental: (§1) In Vitro Radioactive Assays of CETP-Catalyzed CE and TG Transfer (RTA Assay)
(§2) Reagents and sources are: [3H] cholesteryl oleate (GE #TRK.886), [3H] Triolein (Perkin-Elmer NET-431), Butylated hydroxyl toluene (Aldrich, #D4740-4), DOPC (Sigma, #P6354), Sodium Bromide (Fisher scientific #S255-500), PEG 8000 (Fisher, #BP233-1), and human HDL (Intracel Corp #RP-036).
(§3) An in vitro assay for determining IC50's to identify compounds that inhibit CETP transfer activity is performed based on a modification of a published method (Morton and Zilversmit, (1981) A plasma inhibitor of triglyceride and cholesteryl ester transfer activities, J. Biol. Chem. 256(23), 11992-11995). The ability of inhibitors to alter CETP activity is performed using two different assays: one using recombinant CETP and one using an endogenous plasma source of CETP. Both assays measure the transfer of [3H] cholesteryl oleate or [3H] triolein from exogenous LDL to HDL.
(§4) Radiolabeled donor particles are generated by first combining 100 μl of 200 μM butylated hydroxyl toluene in CHCl3, 216 μL of 21.57 mM DOPC in EtOH, and either 500 μCi [3H]-triolein (Perkin Elmer #NET-431) or 500 μCi [3H]-cholesteryl oleate (GE #TRK886) in a glass tube. Reagents are mixed, dried under nitrogen, and then resuspended in 2 mL of 50 mM Tris, 27 μM EDTA at pH 7.4. After a brief vortex, the solution is sonicated until clear and mixed with 20 mL of fresh human serum. The mixture is incubated overnight at 37° C. The [3H] labeled LDL substrate is separated at 1.063 g/ml density by sequential ultracentrifugal flotation in NaBr according to the method of Havel, Eder, et al., 1955, and Chapman, Goldstein, et al., 1981. Once isolated the particles are dialyzed 3× in CETP buffer (50 mM Tris, pH 7.4, 100 mM NaCl, 1 mM EDTA). Human HDL is purchased from Intracel and used as the acceptor particles.
(§5) Transfer assays are performed in a 96-well v-bottom polypropylene plate. For the RTA using recombinant CETP (2% RTA), an assay cocktail is prepared with the final concentrations 128 μg/mL HDL, 20 nM rCETP, 2% human serum, and 1×CETP buffer. 1 μL of each test compound diluted in DMSO is added to 47 μL of assay cocktail per well and incubated at 37° C. for 1 hour. To initiate the transfer reaction, 2 μL radiolabeled LDL is added. After an additional 60 min of incubation at 37° C., the transfer action is terminated by precipitation of LDL with an equal volume of 20% W/V PEG 8000. The plates are centrifuged at 2000 rpm for 30 minutes at 4° C. A 40 μL aliquot of the HDL-containing supernatant is transferred to a Packard Optiplate™ with 200 μL of MicroScint™ 20. After mixing, plates are counted by liquid scintillation. Counts present in the supernatant for blanks (wells containing only HDL acceptor, CETP buffer and DMSO) are subtracted from those containing test compounds and used to correct for non-specific transfer.
(§6) Comparison of the counts of samples with inhibitors to an uninhibited (DMSO only) positive control yield a percent inhibition. A plot of percent inhibition vs. log of inhibitor concentration, fit to a Sigmoidal 4 parameter equation is used to calculate IC50.

[2] = target: T2, endogenous CETP from human serum (Homo sapiens, UniProt P11597); assay: RTA assay using endogenous CETP from serum (95% RTA); format: biochemical; settings: 95% human serum
T2 construct: yielding a concentration of approximately 15 nM endogenous CETP in the assay; from tissue; host or cells: human serum
T2 sequence (P11597 18-493): T1 sequence (P11597 18-493)
Experimental: as §1, §2, §3, §4, §5
For the transfer assay using endogenous CETP from serum (95% RTA), the same procedure is used except that human serum is added such that a final concentration of serum of 95% of the total assay volume is achieved, yielding a concentration of approximately 15 nM endogenous CETP in the assay. This is then combined with HDL and CETP buffer and the reaction proceeds as above and is terminated as described.
as §6

[3] = cited from earlier work
[4] = Phase III outcomes trial, cited from earlier work
[5] = torcetrapib and atorvastatin concomitantly, compared with atorvastatin alone; cited from earlier work
[6] = patients on baseline statin therapy, compared with patients treated with just a statin

Row | SMILES | IC50 [1] | IC50 [2] | further results
1 | C[C@@H]1CN(c2cccc(CC3(c4cccc(OC(F)(F)F)c4)CN(C[C@@H](O)C(F)(F)F)c4ccccc43)c2)CCO1 (some centres unmarked) [Example 51] | 1610 nM | 1720 nM | –
2 | O[C@H](CN1CC(Cc2cccc(N3CC(F)C3)c2)(c2cccc(OC(F)(F)F)c2)c2ccccc21)C(F)(F)F (some centres unmarked) [Example 52] | 447 nM | 5840 nM | –
3 | CC1(O)CN(c2cccc(CC3(c4cccc(OC(F)(F)F)c4)CN(C[C@@H](O)C(F)(F)F)c4ccccc43)c2)C1 (some centres unmarked) [Example 53] | 680 nM | 8050 nM | –
4 | O[C@H](CN1CC(Cc2cccc(N3CCC(F)(F)C3)c2)(c2cccc(OC(F)(F)F)c2)c2ccccc21)C(F)(F)F (some centres unmarked) [Example 54] | 510 nM | 3650 nM | –
5 | O[C@H](CN1CC(Cc2cccc(N3CC4(COC4)C3)c2)(c2cccc(OC(F)(F)F)c2)c2ccccc21)C(F)(F)F (some centres unmarked) [Example 55] | 98 nM | 533 nM | –
6 | O[C@H](CN1CC(Cc2cccc(N3CCC(F)(F)CC3)c2)(c2cccc(OC(F)(F)F)c2)c2ccccc21)C(F)(F)F (some centres unmarked) [Example 56] | 413 nM | 6940 nM | –
7 | O[C@H](CN1CC(Cc2cccc(N3CC[C@H](F)C3)c2)(c2cccc(OC(F)(F)F)c2)c2ccccc21)C(F)(F)F (some centres unmarked) [Example 57] | 350 nM | 3680 nM | –
8 | O[C@H](CN1CC(Cc2cccc(N3CC[C@@H](F)C3)c2)(c2cccc(OC(F)(F)F)c2)c2ccccc21)C(F)(F)F (some centres unmarked) [Example 58] | 171 nM | 1410 nM | –
9 | O[C@H](CN1CC(Cc2cccc(N3CCCC(F)(F)C3)c2)(c2cccc(OC(F)(F)F)c2)c2ccccc21)C(F)(F)F (some centres unmarked) [Example 59] | 198 nM | 1420 nM | –
10 | COC(=O)c1cccc(CC2(c3cccc(OC(F)(F)F)c3)CN(C[C@@H](O)C(F)(F)F)c3ccccc32)c1 (stereo partly drawn) [Example 60, Methyl 3-((1-((R)-3,3,3-trifluoro-2-hydroxypropyl)-3-(3-(trifluoromethoxy)phenyl)indolin-3-yl)methyl)benzoate] | 668 nM | 937 nM | –
11 | COc1cc(F)c(C(C)C)cc1-c1ccc(C(F)(F)F)cc1CN1C(=O)O[C@H](c2cc(C(F)(F)F)cc(C(F)(F)F)c2)[C@@H]1C [anacetrapib] | – | – | decrease of LDL-C [3, 6]: 40%; increase of HDL-C [3, 6]: 138%; increase in mortality ([3]; patients treated with anacetrapib, DEFINE trial): unlikely
12 | CCC(CC)CC1(C(=O)Nc2ccccc2SC(=O)C(C)C)CCCCC1 [dalcetrapib] | – | – | clinical benefit (interim data) ([4]; terminated early): did not show a clinical benefit; safety issues [4]: no safety issues detected
13 | CCOC(=O)N1c2ccc(C(F)(F)F)cc2[C@@H](N(Cc2cc(C(F)(F)F)cc(C(F)(F)F)c2)C(=O)OC)C[C@H]1CC [torcetrapib] | – | – | incidence of mortality [5]: higher incidence of mortality

— patent US9688630B2, “3,3′-disubstituted indolines as inhibitors of cholesterol ester transfer protein” (Merck Sharp & Dohme Corp., priority 2013, dated 2017)
